Results: patent US20240148709A1, “METHODS OF TREATING EYE PAIN AND EYE DISORDERS” (Aisa Pharma, Inc., priority 2022, published 2024)

System: participants with SSc-RP
Test: Scleroderma Health Assessment Questionnaire (SHAQ), Phase 2a study Part A
Format: in vivo, human
Conditions: cilnidipine 10 mg and/or tadalafil 5 mg arms
Experimental: Part A—double-blind, placebo-controlled, parallel-group, dose selection, will assess the safety and efficacy of two doses of cilnidipine (10 mg and 20 mg), alone and in combination with tadalafil. A total of 36 participants will be randomized to one of six prespecified treatment arms. Refer to FIG. 1 for treatment arms in Part A of the study. Dosing last for 12 (±2) days in which participants will self-administer daily doses of assigned treatment in the morning. Each participant will take one capsule and one tablet to blind the active therapy being received.
The standard, validated, patient reported outcome measures tool for SSc patients, the SHAQ, will be collected at the time points specified in the study schedules (FIG. 2 and FIGS. 3A and 3B) to assess the participant's quality of life. The SHAQ includes a Raynaud's VAS that will also be reported separately.
Results: Patients in the study were administered the Scleroderma Health Assessment Questionnaire (SHAQ) at the time of study entry and during clinic visits following the treatment period. The study is a two-part, parallel arm design, prospective, double-blind, randomized study conducted in Australia (Flinders Medical Center). 27 patients were randomized into the first phase of the study, following which a DSMB meeting was held, which reviewed data on the primary study endpoint and key Raynaud's secondary endpoints. Data on the SHAQ was not available for the DSMB to review. The mITT population, in which any data was available post treatment was 24 patients was the analysis population for this first part of the study. The second part (i.e., part B) of the study will randomize 36 patients in a double blind, randomized, prospective, placebo controlled, crossover study. In the first part (i.e., Part A) of the study for which data is presented, patients were randomized into 6 groups, cilnidipine at two doses (10 and 20 mg) alone and in combination with tadalafil 5 mg, tadalafil 5 mg alone, and placebo. […] The DSMB recommended that the study proceed into its double blind prospective cross overpowered second phase and compare cilnidipine 20 mg alone to placebo.

COCCOC(=O)C1=C(C)NC(C)=C(C(=O)OC/C=C/c2ccccc2)C1c1cccc([N+](=O)[O-])c1 (stereo not shown) [Cilnidipine, cilnidipine]
SHAQ Overall Change in Severity, Percent Change from Baseline, Max: −26.8%
SHAQ Overall Change in Severity, Percent Change from Baseline, Mean (SD): −56.96 (38.271) %
SHAQ Overall Change in Severity, Percent Change from Baseline, Median: −44.12%
SHAQ Overall Change in Severity, Percent Change from Baseline, Min: −100.0%
SHAQ Overall Change in Severity, Percent Change from Baseline, Q1: −100.00%
SHAQ Overall Change in Severity, Percent Change from Baseline, Q3: −26.76%
SHAQ Standard disability index, Change from Baseline, Max: 0.00, 0.00
SHAQ Standard disability index, Change from Baseline, Mean (SD): 0.0 (0.0000)
SHAQ Standard disability index, Change from Baseline, Median: 0.000
SHAQ Standard disability index, Change from Baseline, Min: 0.00, 0.00
SHAQ Standard disability index, Change from Baseline, Q1: 0.000, 0.000
SHAQ Standard disability index, Change from Baseline, Q3: 0.000, 0.000
SHAQ Standard disability index, In Clinic Visit (Day 12), Max: 1.50
SHAQ Standard disability index, In Clinic Visit (Day 12), Mean (SD): 0.656 (0.7731)
SHAQ Standard disability index, In Clinic Visit (Day 12), Median: 0.563
SHAQ Standard disability index, In Clinic Visit (Day 12), Min: 0.00
SHAQ Standard disability index, In Clinic Visit (Day 12), Q1: 0.000
SHAQ Standard disability index, In Clinic Visit (Day 12), Q3: 1.313
SHAQ Standard disability index, Percent Change from Baseline, Max: 0.0, 0.0%
SHAQ Standard disability index, Percent Change from Baseline, Mean (SD): 0.0 (0.000) %
SHAQ Standard disability index, Percent Change from Baseline, Median: 0.00%
SHAQ Standard disability index, Percent Change from Baseline, Min: 0.0, 0.0%
SHAQ Standard disability index, Percent Change from Baseline, Q1: 0.00, 0.00%
SHAQ Standard disability index, Percent Change from Baseline, Q3: 0.00, 0.00%
SHAQ Visual Analog Scale-Breathing Problems, Change from Baseline, Max: 0.00
SHAQ Visual Analog Scale-Breathing Problems, Change from Baseline, Mean (SD): −0.300 (0.6000)
SHAQ Visual Analog Scale-Breathing Problems, Change from Baseline, Median: 0.000
SHAQ Visual Analog Scale-Breathing Problems, Change from Baseline, Min: −1.20
SHAQ Visual Analog Scale-Breathing Problems, Change from Baseline, Q1: −0.600
SHAQ Visual Analog Scale-Breathing Problems, Change from Baseline, Q3: 0.000
SHAQ Visual Analog Scale-Breathing Problems, In Clinic Visit (Day 12), Max: 6.30
SHAQ Visual Analog Scale-Breathing Problems, In Clinic Visit (Day 12), Mean (SD): 1.575 (3.1500)
SHAQ Visual Analog Scale-Breathing Problems, In Clinic Visit (Day 12), Median: 0.000
SHAQ Visual Analog Scale-Breathing Problems, In Clinic Visit (Day 12), Min: 0.00
SHAQ Visual Analog Scale-Breathing Problems, In Clinic Visit (Day 12), Q1: 0.000
SHAQ Visual Analog Scale-Breathing Problems, In Clinic Visit (Day 12), Q3: 3.150
SHAQ Visual Analog Scale-Breathing Problems, Percent Change from Baseline, Max: −16.0, −16.0%
SHAQ Visual Analog Scale-Breathing Problems, Percent Change from Baseline, Mean (SD): −16.00%
SHAQ Visual Analog Scale-Breathing Problems, Percent Change from Baseline, Median: −16.00%
SHAQ Visual Analog Scale-Breathing Problems, Percent Change from Baseline, Min: −16.0, −16.0%
SHAQ Visual Analog Scale-Breathing Problems, Percent Change from Baseline, Q1: −16.00, −16.00%
SHAQ Visual Analog Scale-Breathing Problems, Percent Change from Baseline, Q3: −16.00, −16.00%
SHAQ Visual Analog Scale-Intestinal Problems, Change from Baseline, Max: 0.00
SHAQ Visual Analog Scale-Intestinal Problems, Change from Baseline, Mean (SD): −1.875 (2.1838)
SHAQ Visual Analog Scale-Intestinal Problems, Change from Baseline, Median: −1.550
SHAQ Visual Analog Scale-Intestinal Problems, Change from Baseline, Min: −4.40
SHAQ Visual Analog Scale-Intestinal Problems, Change from Baseline, Q1: −3.700
SHAQ Visual Analog Scale-Intestinal Problems, Change from Baseline, Q3: −0.050
SHAQ Visual Analog Scale-Intestinal Problems, In Clinic Visit (Day 12), Max: 3.80
SHAQ Visual Analog Scale-Intestinal Problems, In Clinic Visit (Day 12), Mean (SD): 1.100 (1.8221)
SHAQ Visual Analog Scale-Intestinal Problems, In Clinic Visit (Day 12), Median: 0.300
SHAQ Visual Analog Scale-Intestinal Problems, In Clinic Visit (Day 12), Min: 0.00
SHAQ Visual Analog Scale-Intestinal Problems, In Clinic Visit (Day 12), Q1: 0.000
SHAQ Visual Analog Scale-Intestinal Problems, In Clinic Visit (Day 12), Q3: 2.200
SHAQ Visual Analog Scale-Intestinal Problems, Percent Change from Baseline, Max: −44.1%
SHAQ Visual Analog Scale-Intestinal Problems, Percent Change from Baseline, Mean (SD): −77.37 (29.418) %
SHAQ Visual Analog Scale-Intestinal Problems, Percent Change from Baseline, Median: −88.00%
SHAQ Visual Analog Scale-Intestinal Problems, Percent Change from Baseline, Min: −100.0%
SHAQ Visual Analog Scale-Intestinal Problems, Percent Change from Baseline, Q1: −100.00%
SHAQ Visual Analog Scale-Intestinal Problems, Percent Change from Baseline, Q3: −44.12%
SHAQ Visual Analog Scale-Pain, Change from Baseline, Max: 0.30
SHAQ Visual Analog Scale-Pain, Change from Baseline, Mean (SD): −0.100 (0.4243)
SHAQ Visual Analog Scale-Pain, Change from Baseline, Median: 0.000
SHAQ Visual Analog Scale-Pain, Change from Baseline, Min: −0.70
SHAQ Visual Analog Scale-Pain, Change from Baseline, Q1: −0.350
SHAQ Visual Analog Scale-Pain, Change from Baseline, Q3: 0.150
SHAQ Visual Analog Scale-Pain, In Clinic Visit (Day 12), Max: 3.60
SHAQ Visual Analog Scale-Pain, In Clinic Visit (Day 12), Mean (SD): 1.875 (1.6641)
SHAQ Visual Analog Scale-Pain, In Clinic Visit (Day 12), Median: 1.950
SHAQ Visual Analog Scale-Pain, In Clinic Visit (Day 12), Min: 0.00
SHAQ Visual Analog Scale-Pain, In Clinic Visit (Day 12), Q1: 0.500
SHAQ Visual Analog Scale-Pain, In Clinic Visit (Day 12), Q3: 3.250
SHAQ Visual Analog Scale-Pain, Percent Change from Baseline, Max: 11.5%
SHAQ Visual Analog Scale-Pain, Percent Change from Baseline, Mean (SD): −9.88 (27.711) %
SHAQ Visual Analog Scale-Pain, Percent Change from Baseline, Median: 0.00%
SHAQ Visual Analog Scale-Pain, Percent Change from Baseline, Min: −41.2%
SHAQ Visual Analog Scale-Pain, Percent Change from Baseline, Q1: −41.18%
SHAQ Visual Analog Scale-Pain, Percent Change from Baseline, Q3: 11.54%
SHAQ Visual Analog Scale-Raynaud's, Change from Baseline, Max: 1.50
SHAQ Visual Analog Scale-Raynaud's, Change from Baseline, Mean (SD): 0.325 (1.0468)
SHAQ Visual Analog Scale-Raynaud's, Change from Baseline, Median: 0.350
SHAQ Visual Analog Scale-Raynaud's, Change from Baseline, Min: −0.90
SHAQ Visual Analog Scale-Raynaud's, Change from Baseline, Q1: −0.500
SHAQ Visual Analog Scale-Raynaud's, Change from Baseline, Q3: 1.150
SHAQ Visual Analog Scale-Raynaud's, In Clinic Visit (Day 12), Max: 4.30
